In data set [1] the test system is mice. To be noted: cited from earlier work.
The nature of data set [2]: Caco-2 cell monolayer permeation. As to conditions: human, Caco-2, pH 7.4.
Data set [3] has as its target T1, μ opioid receptor (Homo sapiens, UniProt P35372).
T1 construct: expressed in transfected cells
Kind of data set: Radioligand displacement, μ. In kind it is binding. As to conditions: binding curve File S1, Mu Opiod Receptor, [3H]DAMGO (0.3 nM), Standard Binding Buffer, read-out: Ki.

Read-outs that look alike come from different tables or passages of the source.

T1 sequence (P35372 whole entry): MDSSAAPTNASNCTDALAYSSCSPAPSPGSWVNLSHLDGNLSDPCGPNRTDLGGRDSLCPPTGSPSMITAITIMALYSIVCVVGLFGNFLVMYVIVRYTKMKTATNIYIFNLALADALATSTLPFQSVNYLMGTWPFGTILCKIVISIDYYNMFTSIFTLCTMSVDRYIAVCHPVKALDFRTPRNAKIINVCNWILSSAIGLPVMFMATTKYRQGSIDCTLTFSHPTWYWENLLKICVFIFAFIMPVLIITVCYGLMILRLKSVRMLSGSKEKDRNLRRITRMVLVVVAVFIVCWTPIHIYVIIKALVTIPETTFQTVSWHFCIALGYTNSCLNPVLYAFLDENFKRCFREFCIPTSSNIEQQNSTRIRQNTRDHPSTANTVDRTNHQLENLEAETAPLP

For the compound `NCc1ccc2[nH]c3c(c2c1)CC1(O)C2Cc4ccc(O)c5c4C1(CCN2CC1CC1)C3O5` (stereo not shown) [5′-aminomethylnaltrindole], the toxic signs entry in data set [1] (20 mg/kg i.p.) is “gasping and convulsions”.
`O=C1CC[C@@]2(O)[C@H]3Cc4ccc(O)c5c4[C@@]2(CCN3CC2CC2)[C@H]1O5` [Naltrexone]: in data set [1] (mice, s.c.), the LD50 (usually the dose expected to kill half of the subjects tested) is listed as 570 mg/kg. Further, in data set [2], the Papp A→B – broadly, the apparent permeability from the apical to the basolateral side of a cell layer – at 120 min amounted to 59 ×10⁻⁶ cm/s; the Papp B→A (as a rule, how fast a substance crosses the layer from the basolateral side) at 120 min amounted to 270 ×10⁻⁶ cm/s; the efflux ratio – broadly, a quotient of directional permeabilities that is used to spot active efflux – at 120 min amounted to 5.7.
For the compound “DAM80: reference ligand of the mu opioid binding curve”, the Ki (commonly the dissociation constant of the complex between target and ligand, obtained from inhibition or displacement) turned out to be 0.41 nM in data set [3] (listed as DAM30) and 0.54 nM in data set [3].

These data come from PMC3747596 (PLoS ONE, 2013).
